# Test results reported in ChEMBL document CHEMBL1201862, “PubChem BioAssay data set” (2004).
# The source made the active and inactive calls.
# Legend:
# [1] = viability of HCT116 lacking mutant beta-catenin – cell-based, human colon tumor, dose response (AID 1045); type: functional;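 note: HCT116 colon tumor cells with beta catenin knocked out; cells exposed to compound for 60 hours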
# [2] = viability of PTEN-deleted HCT116 cells – cell-based, HCT116 PTEN knockout, dose response (AID 1047); type: functional;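 note: HCT116 colon tumor cells with PTEN knocked out; cells exposed to compound for 60 hours before readout; potency for loss of cell viability measured by luminescence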
# [3] = molecular target: Large T antigen (Simian virus 40, UniProt P03070); type: functional, Betapolyomavirus macacae;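 note: Confirmatory-stage PubChem screen for compounds that inhibit SV40 T antigen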
# [4] = molecular target: T1, Sentrin-specific protease 8 (Homo sapiens, UniProt Q96LD8); type: functional
# T1 sequence (Q96LD8 whole entry): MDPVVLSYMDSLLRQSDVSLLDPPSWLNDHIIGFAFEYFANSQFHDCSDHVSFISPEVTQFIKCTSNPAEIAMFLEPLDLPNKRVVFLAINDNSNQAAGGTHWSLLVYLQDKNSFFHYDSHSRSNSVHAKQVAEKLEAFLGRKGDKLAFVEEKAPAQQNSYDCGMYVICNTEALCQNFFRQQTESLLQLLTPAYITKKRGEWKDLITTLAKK
# [5] = molecular target: T1, Sentrin-specific protease 8; type: functional; remark: listed apart in the source
# [6] = reduction of Shn3 3'UTR-driven luciferase in osteoblasts – cell-based, Clone20 osteoblasts, firefly luciferase, cherry-picked, dose response (AID 624132); type: functional;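 note: firefly luciferase luminescence from reporter carrying the Shn3 3'UTR in osteoblasts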
# [7] = loss of viability in HepG2 cells – cell-based, CellTiter-Glo, cherry-picked, cytotoxicity control for Shn3 inhibitor project, dose response (AID 624134); type: functional
# [8] = molecular target: T2, Carboxy-terminal domain RNA polymerase II polypeptide A small phosphatase 1 (Homo sapiens, UniProt Q9GZU7); test: CTDSP1 inhibitors, concentration-response, biochemical, absorbance readout, ultra-high-throughput screen actives (AID 540297); type: functional
# T2 sequence (Q9GZU7 whole entry): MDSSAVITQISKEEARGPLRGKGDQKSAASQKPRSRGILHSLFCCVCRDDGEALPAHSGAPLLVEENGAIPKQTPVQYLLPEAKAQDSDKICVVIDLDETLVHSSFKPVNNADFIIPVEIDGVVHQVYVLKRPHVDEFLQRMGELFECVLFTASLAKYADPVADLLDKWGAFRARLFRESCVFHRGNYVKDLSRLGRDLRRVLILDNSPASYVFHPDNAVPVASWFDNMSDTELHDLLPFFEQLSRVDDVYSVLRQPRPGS
# [9] = non-specific 3'UTR reporter inhibition in Clone20-Shn3RL – cell-based, Renilla luciferase, cherry-picked, counter-screen for Shn3 inhibitor project, dose response (AID 624133); type: functional
# [10] = molecular target: T3, Heat shock factor protein 1 (Mus musculus, UniProt P38532); test: decrease of HSF1-responsive luciferase luminescence – cell-based, NIH3T3, dose retest, confirmation (AID 2382); type: functional;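 note: NIH3T3 fibroblasts with HSF1-driven luciferase reporter stressed by proteasome inhibitor MG132; luminescence from HSF1-driven luciferase expression after 8 hours of MG132 stress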
# T3 sequence (P38532 whole entry): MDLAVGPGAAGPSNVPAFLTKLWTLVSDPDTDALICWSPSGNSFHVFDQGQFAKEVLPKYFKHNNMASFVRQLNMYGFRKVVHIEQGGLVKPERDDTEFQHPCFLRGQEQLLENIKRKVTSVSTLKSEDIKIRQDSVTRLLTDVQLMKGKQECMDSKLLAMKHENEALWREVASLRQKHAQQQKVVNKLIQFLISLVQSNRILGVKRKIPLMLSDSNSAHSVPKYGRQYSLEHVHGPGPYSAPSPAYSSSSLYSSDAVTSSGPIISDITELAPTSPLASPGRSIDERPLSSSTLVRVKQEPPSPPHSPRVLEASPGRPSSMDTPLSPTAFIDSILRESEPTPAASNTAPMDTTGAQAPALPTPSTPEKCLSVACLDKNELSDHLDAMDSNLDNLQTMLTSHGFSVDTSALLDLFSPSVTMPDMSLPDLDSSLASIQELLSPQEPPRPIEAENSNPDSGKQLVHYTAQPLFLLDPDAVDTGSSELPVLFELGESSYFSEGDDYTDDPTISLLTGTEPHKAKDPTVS
# [11] = molecular target: T4, Microphthalmia-associated transcription factor (Homo sapiens, UniProt O75030); test: reducers of TRPM1 reporter luminescence, concentration series – cell-based, SK-MEL-5, cherry-picked, set 3, MITF inhibitor project, dose response (AID 493073); type: functional;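 note: SK-MEL-5 melanoma cells with luciferase driven by the MITF target TRPM1 promoter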
# T4 sequence (O75030 whole entry): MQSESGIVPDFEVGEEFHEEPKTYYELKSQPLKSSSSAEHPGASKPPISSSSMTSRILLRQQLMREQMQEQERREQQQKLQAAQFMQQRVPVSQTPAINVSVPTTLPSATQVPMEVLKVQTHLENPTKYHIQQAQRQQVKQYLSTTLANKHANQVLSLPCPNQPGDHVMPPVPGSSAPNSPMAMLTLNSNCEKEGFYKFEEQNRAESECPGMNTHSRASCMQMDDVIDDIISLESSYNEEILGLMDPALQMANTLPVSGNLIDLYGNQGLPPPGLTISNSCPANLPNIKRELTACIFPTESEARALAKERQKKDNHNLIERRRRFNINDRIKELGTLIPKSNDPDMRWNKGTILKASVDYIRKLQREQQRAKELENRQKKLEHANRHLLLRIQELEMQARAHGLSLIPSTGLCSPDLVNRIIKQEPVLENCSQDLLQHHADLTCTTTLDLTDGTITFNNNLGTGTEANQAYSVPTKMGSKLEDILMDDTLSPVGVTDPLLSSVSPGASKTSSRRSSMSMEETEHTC
# [12] = Luminescence Cell-Based Dose Retest to Confirm Inhibitors of Cancer Stem Cells. [Related pubchem assays (depositor defined):AID2717, AID2721]; type: functional; conditions: Homo sapiens
# [13] = Trypanosoma cruzi growth suppression in host cells – NIH3T3 host cells, beta-gal luminescence, confirmation (AID 2044); type: functional, cell-based;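 note: intracellular parasites grown in NIH/3T3 mouse fibroblasts as host cells; luminescent beta-galactosidase reporter signal from transgenic T. cruzi replicating inside host cells; inhibitors lower the luminescence signal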
# [14] = test system: INS1; test: INS-1E survival protection against cytokine death – cell-based, luminescence, retest, dose response (AID 449756); type: functional; conditions: Rattus norvegicus;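 note: cell death triggered by IL-1 beta plus TNF-alpha plus IFN-gamma mixture; protective hits raise ATP signal compared with cytokine alone wells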
# [15] = NIH3T3 cell viability loss – ATP luminescence, mouse fibroblasts, counter-screen, dose response (AID 2010); type: functional, cell-based;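 note: cells exposed to compound for about 90 hours before reading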
# [16] = microbe, parasite or virus in culture; type: functional; conditions: Mycobacterium tuberculosis
# [17] = alpha-synuclein stem-loop luciferase translation blockers – H4 neuroglioma cells, luminescence, confirmation (AID 1988); type: functional, cell-based
# [18] = luciferase reporter signal suppression in cells – H4 neuroglioma cells, luminescence, dose response (AID 1990); type: functional, cell-based
# [19] = test system: H9c2; test: cells; type: functional, cell-based; conditions: Rattus norvegicus, H9c2, Myocardium;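 note: confirmatory concentration-response retest of ultra-high-throughput screening hits for modulation of myocardial damage; cell death induced by hydrogen peroxide oxidative stress; compound pretreatment for 60 min then peroxide exposure for 2 h; potency is for protecting the cells against peroxide damage rather than for killing them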
# [20] = Luminescence Cell-Based Dose Response HTS to Identify Inhibitors of 5'UTR Stem-Loop Driven Prion Protein mRNA Translation in H4 Neuroglioblastoma Cells. [Related pubchem assays: 1827 (Project Summary), 1813 (Primary HTS)]; type: functional
# [21] = HIV-1 AD8 envelope cell-cell fusion blockers – cherry-pick, dose response (AID 652062); type: functional, cell-based;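 note: luciferase signal from cell-cell fusion driven by HIV-1 clade B AD8 Env; potency is for inhibitors of fusion seen as a drop in luminescence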
# [22] = molecular target: T5, Rac GTPase-activating protein 1 (Homo sapiens, UniProt Q9H0H5); test: blockers of MgcRacGAP-driven Rac1 GTP hydrolysis – biochemical, ADP Hunter fluorescence, primary and confirmatory, confirmation (AID 624330); type: functional
# T5 sequence (Q9H0H5 whole entry): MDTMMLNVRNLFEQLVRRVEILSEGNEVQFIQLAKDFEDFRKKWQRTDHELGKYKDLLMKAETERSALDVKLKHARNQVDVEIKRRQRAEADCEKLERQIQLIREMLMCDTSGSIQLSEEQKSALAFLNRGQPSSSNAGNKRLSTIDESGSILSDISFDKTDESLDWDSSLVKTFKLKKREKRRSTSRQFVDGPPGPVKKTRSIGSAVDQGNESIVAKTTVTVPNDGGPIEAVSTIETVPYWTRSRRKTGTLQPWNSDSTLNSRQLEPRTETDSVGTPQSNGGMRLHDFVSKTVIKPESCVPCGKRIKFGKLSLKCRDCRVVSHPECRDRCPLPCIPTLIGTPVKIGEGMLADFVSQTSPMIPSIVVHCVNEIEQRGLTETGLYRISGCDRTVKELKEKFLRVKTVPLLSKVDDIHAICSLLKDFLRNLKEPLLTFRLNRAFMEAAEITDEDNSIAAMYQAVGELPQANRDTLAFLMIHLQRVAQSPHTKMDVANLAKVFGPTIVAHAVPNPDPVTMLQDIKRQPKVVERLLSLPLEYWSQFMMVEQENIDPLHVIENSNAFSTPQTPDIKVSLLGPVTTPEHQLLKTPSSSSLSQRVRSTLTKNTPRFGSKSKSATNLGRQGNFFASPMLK
# Sequence of Large T antigen (P03070 whole entry): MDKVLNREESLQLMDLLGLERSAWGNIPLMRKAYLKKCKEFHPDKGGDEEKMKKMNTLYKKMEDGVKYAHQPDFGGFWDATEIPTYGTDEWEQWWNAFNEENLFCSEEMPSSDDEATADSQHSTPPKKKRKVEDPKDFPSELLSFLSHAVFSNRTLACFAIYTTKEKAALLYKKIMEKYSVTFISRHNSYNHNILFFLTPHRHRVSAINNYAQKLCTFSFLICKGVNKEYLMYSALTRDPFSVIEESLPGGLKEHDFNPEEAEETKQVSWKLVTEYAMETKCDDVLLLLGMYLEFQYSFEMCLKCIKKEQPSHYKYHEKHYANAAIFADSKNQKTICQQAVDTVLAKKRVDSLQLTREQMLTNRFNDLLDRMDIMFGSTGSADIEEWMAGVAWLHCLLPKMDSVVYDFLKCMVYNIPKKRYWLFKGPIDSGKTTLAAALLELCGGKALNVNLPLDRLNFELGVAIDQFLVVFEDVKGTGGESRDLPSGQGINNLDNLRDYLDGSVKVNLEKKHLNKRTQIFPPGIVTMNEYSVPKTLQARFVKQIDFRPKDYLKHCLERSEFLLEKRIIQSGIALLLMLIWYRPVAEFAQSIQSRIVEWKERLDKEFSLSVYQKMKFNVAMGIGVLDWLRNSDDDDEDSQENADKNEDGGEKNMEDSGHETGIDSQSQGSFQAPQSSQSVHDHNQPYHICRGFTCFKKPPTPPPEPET
smiles,measurement,setting,value
Cc1cc(S(=O)(=O)N2CCN(Cc3ccc4c(c3)OCO4)CC2)cc(C)c1N1CCCC1=O,EC50,[1],36 µM (active)
same,EC50,[2],45.7 µM (active)
CN(C)c1ccc(Nc2cc(Cl)ncn2)cc1,IC50,[3],7.46 µM (active)
CN(c1ccc(C(=O)N2CCc3ccccc3C2)cc1)S(C)(=O)=O,IC50,[4],13.1 µM (active)
same,IC50,[5],90.5 µM (inactive)
COC(=O)CCC(=O)OC1(C)C(=O)C=C2C=C3CCCN3C=C2C1=O (stereo not drawn),IC50,[4],7.67 µM (active)
same,IC50,[5],6.06 µM (active)
CCOC(=O)CNc1c(-c2ccc(O)cc2)nc2ccc(Cl)cn12,IC50,[3],15.9 µM (active)
COc1ccc(Nc2nc(N)nc(CN3CCC(Cc4ccccc4)CC3)n2)cc1,EC50,[1],23.5 µM (active)
same,EC50,[2],17.7 µM (active)
CC(C)(C)OC(=O)NCc1ccc(CNC(=O)c2nc[nH]c2C(=O)NCc2ccc(CNC(=O)OC(C)(C)C)cc2)cc1,AC50,[6],5.89 µM (active)
same,AC50,[7],> 70 µM (inactive)
O=C(/C=C/c1ccco1)N1CCN(S(=O)(=O)c2ccccc2)CC1,IC50,[8],4.94 µM (active)
CC(NC(=O)Nc1cccc([N+](=O)[O-])c1)(C(F)(F)F)C(F)(F)F,EC50,[1],12.3 µM (active)
same,EC50,[2],12 µM (active)
Cc1ccc(C(NC(=O)C2CCCCC2)c2c(O)ccc3ccccc23)cc1 (stereo not drawn),EC50,[1],21.5 µM (active)
same,EC50,[2],17.4 µM (active)
COc1ccccc1N=C(N)Nc1nc(O)cc(CSc2ccc(C)cc2)n1,AC50,[6],2.95 µM (active)
same,AC50,[9],12.4 µM (active)
same,AC50,[7],59.8 µM (active)
COc1ccccc1N(CC(=O)NCc1ccco1)S(=O)(=O)c1ccc(C)cc1,IC50,[8],5.17 µM (active)
NC(=S)NNc1cccc2cccnc12,IC50,[4],6 µM (active)
same,IC50,[5],7.91 µM (active)
CN1CCN(CC(=O)n2c3c(c4ccccc42)CCCC3)CC1,IC50,[4],16.6 µM (active)
same,IC50,[5],> 100 µM (inactive)
same,EC50,[10],> 195 µM (not active)
CC1CC(C)CN(C(=O)/C=C/c2ccc([N+](=O)[O-])s2)C1 (stereo not drawn),AC50,[11],11.9 µM (active)
Cc1ccc(C(=O)N2C(=S)C(c3ccc(F)cc3)=NC23CCN(C)CC3)cc1,IC50,[4],15 µM (active)
same,IC50,[5],> 100 µM (inactive)
Cc1ccc(C(=O)OCC(=O)c2ccc(CC(=O)N3CCOCC3)s2)cc1C,IC50,[8],5.01 µM (active)
COc1ccc(C2c3ccc4ccccc4c3Oc3ncn(Cc4ccco4)c(=N)c32)cc1OC (stereo not drawn),AC50,[12],3.94 µM (active)
same,EC50,[1],8.96 µM (active)
same,EC50,[2],7.09 µM (active)
O=C(/C=C/c1ccc(Cl)cc1)NC(=S)Nc1ccccc1C(=O)O,IC50,[8],8.66 µM (active)
Cc1ccc(C#CC[N+]2(CC#Cc3ccc(C)cc3)CCCCC2)cc1,EC50,[13],0.344 µM (active)
same,AC50,[11],3.95 µM (active)
same,AC50,[14],2.04 µM (active)
same,EC50,[15],> 60 µM (inconclusive)
same,CC50,[16],> 40 µM (active)
CC(Oc1ccc(F)cc1)C(=O)Nc1nc(-c2ccccn2)cs1 (stereo not drawn),AC50,[11],9.42 µM (active)
same,EC50,[17],> 120 µM (not active)
same,EC50,[18],> 120 µM (not active)
same,IC50,[19],> 79 µM (inactive)
same,EC50,[20],10.2 µM (active)
Nc1ccn([C@@H]2O[C@H](C(=O)NCc3ccc4c(c3)OCO4)[C@@H](O)[C@H]2O)c(=O)n1,AC50,[21],0.723 µM (active)
CC(=O)N(CCc1ccccc1)c1ccc2c(c1)C1CC2CCN1C(=O)OCc1ccccc1 (stereo not drawn),AC50,[6],14.3 µM (active)
same,AC50,[7],> 70 µM (inactive)
Cn1nc(C(C)(C)C)cc1C(=O)N1CCCCC1c1cc(C(=O)Nc2ccc(F)c(Cl)c2)no1 (stereo not drawn),AC50,[6],3.04 µM (active)
same,AC50,[9],5.06 µM (active)
same,AC50,[7],5.09 µM (active)
CCS(=O)(=O)N1CCCC(C(=O)N2CCc3ccccc3C2)C1 (stereo not drawn),IC50,[4],17.7 µM (active)
same,IC50,[5],71.7 µM (inactive)
O=C(N/N=C/c1ccc(O)cc1O)/C(=C/c1ccccc1)CCO,AC50,[12],6.81 µM (active)
same,IC50,[3],19.4 µM (active)
same,AC50,[14],2.11 µM (active)
COc1cc(/C=N/NC(=O)Cn2nnc3ccccc32)ccc1O,IC50,[22],24.3 µM (active)
same,IC50,[3],6.59 µM (active)
O=C(CNC(=O)c1ccccc1)N/N=C/c1ccc([N+](=O)[O-])s1,EC50,[13],0.285 µM (active)
same,AC50,[11],5.34 µM (active)
same,EC50,[15],12.7 µM (active)
COc1ccc(/C=N/NC(=O)c2cccc(NC(=O)c3ccc(Cl)cc3)c2)c(OC)c1,IC50,[8],6.27 µM (active)
COc1cc(/C=N/NC(=O)CNc2nnc(O)nc2O)ccc1O,IC50,[22],35.9 µM (active)
same,IC50,[3],8.93 µM (active)
